Earlier results in patent US8298992B2, “Low odor, low volatility solvent for agricultural chemicals” (Huntsman Petrochemical LLC, priority 2006, dated 2012).

Details: solubility data available for a dimethyamide (comparison)

Solubility in Water (wt %): 3.8% wt %
Compound: CCCCCCCCCC(=O)N(C)C [N,N-dimethyldecanamide]
